In ChEMBL document CHEMBL1201862, “PubChem BioAssay data set” (2004):
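Test compounds were applied to cells in 96-well plates for 48 hours at 5 doses. GI50 is the concentration that inhibits growth by half.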 Calls of active or inactive are those of the source. Rule as the data show it: active = GI50 up to about 1.1 µM and inactive = higher.

What was measured:
Assay in all cases: DTP human tumour cell line panel, 48 h
IGROV-1 = system: IGROV-1
OVCAR-4 = system: OVCAR-4
HCT-116 = system: HCT-116
SK-OV-3 = system: SK-OV-3
BT-549 = system: BT-549
Malme-3M = system: Malme-3M
NCI-H23 = system: NCI-H23
MDA-MB-231 = system: MDA-MB-231
NCI-H460 = system: NCI-H460
A549 = system: A549
KM12 = system: KM12
T47D = system: T47D
OVCAR-8 = system: OVCAR-8
SF-295 = system: SF-295
SR = system: SR
HL-60 = system: HL-60
786-0 = system: 786-0
HOP-62 = system: HOP-62
COLO 205 = system: COLO 205
SK-MEL-28 = system: SK-MEL-28
HCC 2998 = system: HCC 2998
SK-MEL-5 = system: SK-MEL-5
RPMI-8226 = system: RPMI-8226
HT-29 = system: HT-29
MOLT-4 = system: MOLT-4
NCI-H226 = system: NCI-H226
Hs-578T = system: Hs-578T
SW-620 = system: SW-620
K562 = system: K562
HOP-92 = system: HOP-92
SNB-19 = system: SNB-19
DU-145 = system: DU-145
PC-3 = system: PC-3
UO-31 = system: UO-31
MCF7 = system: MCF7
MDA-N = system: MDA-N
SF-539 = system: SF-539
UACC-62 = system: UACC-62
TK-10 = system: TK-10
M14 = system: M14
OVCAR-3 = system: OVCAR-3
OVCAR-5 = system: OVCAR-5
CAKI-1 = system: CAKI-1
SN12C = system: SN12C
EKVX = system: EKVX
ACHN = system: ACHN
SK-MEL-2 = system: SK-MEL-2
MDA-MB-435 = system: MDA-MB-435
SF-268 = system: SF-268
HCT-15 = system: HCT-15
LOX IMVI = system: LOX IMVI
U-251 = system: U-251
A498 = system: A498
NCI-H522 = system: NCI-H522
NCI/ADR-RES = system: NCI/ADR-RES
CCRF-CEM = system: CCRF-CEM
UACC-257 = system: UACC-257

## O=C1CSC(c2cccc([N+](=O)[O-])c2)N1c1ccc(-n2c(-c3ccccc3)nc3ccccc3c2=O)cc1 (configuration not stated)
IGROV-1
  GI50: > 100 µM (inactive)
OVCAR-4
  GI50: > 100 µM (inactive)
HCT-116
  GI50: > 100 µM (inactive)
SK-OV-3
  GI50: 26.2 µM (inactive)
BT-549
  GI50: 28.2 µM (inactive)
Malme-3M
  GI50: > 100 µM (inactive)
NCI-H23
  GI50: > 100 µM (inactive)
MDA-MB-231
  GI50: > 100 µM (inactive)
NCI-H460
  GI50: > 100 µM (inactive)
A549
  GI50: > 100 µM (inactive)
KM12
  GI50: > 100 µM (inactive)
T47D
  GI50: 6.68 µM (inactive)
OVCAR-8
  GI50: > 100 µM (inactive)
SF-295
  GI50: > 100 µM (inactive)
SR
  GI50: 84.3 µM (inactive)
HL-60
  GI50: > 100 µM (inactive)
786-0
  GI50: > 100 µM (inactive)
HOP-62
  GI50: > 100 µM (inactive)
COLO 205
  GI50: > 100 µM (inactive)
SK-MEL-28
  GI50: > 100 µM (inactive)
HCC 2998
  GI50: 63.7 µM (inactive)
SK-MEL-5
  GI50: > 100 µM (inactive)
RPMI-8226
  GI50: > 100 µM (inactive)
HT-29
  GI50: > 100 µM (inactive)
MOLT-4
  GI50: 83.8 µM (inactive)
NCI-H226
  GI50: > 100 µM (inactive)
Hs-578T
  GI50: 78.2 µM (inactive)
SW-620
  GI50: > 100 µM (inactive)
K562
  GI50: > 100 µM (inactive)
HOP-92
  GI50: 94.8 µM (inactive)
SNB-19
  GI50: > 100 µM (inactive)
DU-145
  GI50: > 100 µM (inactive)
PC-3
  GI50: > 100 µM (inactive)
UO-31
  GI50: 3.76 µM (inactive)
MCF7
  GI50: > 100 µM (inactive)
MDA-N
  GI50: > 100 µM (inactive)
SF-539
  GI50: > 100 µM (inactive)
UACC-62
  GI50: 13.9 µM (inactive)
TK-10
  GI50: > 100 µM (inactive)
M14
  GI50: > 100 µM (inactive)
OVCAR-3
  GI50: > 100 µM (inactive)
OVCAR-5
  GI50: > 100 µM (inactive)
CAKI-1
  GI50: > 100 µM (inactive)
SN12C
  GI50: > 100 µM (inactive)
EKVX
  GI50: > 100 µM (inactive)
ACHN
  GI50: > 100 µM (inactive)
SK-MEL-2
  GI50: 56.9 µM (inactive)
MDA-MB-435
  GI50: > 100 µM (inactive)
SF-268
  GI50: 99.3 µM (inactive)
HCT-15
  GI50: 30.5 µM
LOX IMVI
  GI50: > 100 µM (inactive)
U-251
  GI50: > 100 µM (inactive)
A498
  GI50: > 100 µM (inactive)
NCI-H522
  GI50: > 100 µM (inactive)
NCI/ADR-RES
  GI50: > 100 µM (inactive)
CCRF-CEM
  GI50: > 100 µM (inactive)
UACC-257
  GI50: > 100 µM (inactive)
